From PubChem BioAssay (NCI)
Where “and” joins values, the source holds several entries; their conditions need not be identical. Equal values may be shown once.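 Interpolation was linear, between the two tested concentrations surrounding the appropriate level; five concentrations were tested over 48 hours in 96-well plates. At the GI50, growth is halved. Definition used: TGI = concentration required for complete inhibition of growth.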

System: BT-549 breast
Assay: inhibition of tumour cell growth, NCI panel, 48 h

SMILES | TGI | GI50 [nM]
O=C1NC(=NC(CO)Cc2ccccc2)S/C1=C\c1ccc2ncccc2c1 (centres undefined) | > 25 µM and 11.4 µM | 
Cc1nnc(NC(=O)c2nc(S(=O)(=O)Cc3ccc(F)cc3)ncc2Cl)s1 | 5.25 µM | 2300
CC(C)[C@@H]1C=C2CC[C@H]3[C@](C)(CN)CCC[C@]3(C)[C@H]2CC1 | 35.4 µM | 16500
Nc1cc(NN=C(c2ccc(O)cc2)c2ccc(O)cc2)c([N+](=O)[O-])cc1[N+](=O)[O-] | 6.78 µM | 2460
O=C(Nc1ccc(Oc2ccc(Nc3nc4ccccc4s3)cc2)cc1)Nc1ccc(Cl)c(C(F)(F)F)c1 | 3.05 µM | 1540
Nc1c(C(=O)Nc2cccc(C(F)(F)F)c2)sc2nc3c(cc12)CCCCC3 | 6.33 µM | 1700
Nc1ccc(C2=NNC(=O)Cc3cc4c(cc32)OCCO4)cc1Cl | > 50 µM | 5990
COc1ccc2nc3cc(Cl)ccc3c(NCCNCC(C)O)c2c1 (centres undefined) | 21.8 µM | 7920
CCCOc1cc2ccccc2cc1C(=O)Nc1nc(N)c2c(ccc3nccc32)[nH]1 | 2.11 µM | 99.8
CC1(C)OC1COc1c2occc2cc2ccc(=O)oc12 (centres undefined) | > 100 µM | 
Nc1n[nH]c2cc(F)c([C@@H]3Nc4ccc5[nH]ncc5c4[C@H]4C5CCC(C5)[C@@H]34)cc12 (some centres undefined) | 2.59 µM | 141
COc1ccc(CCN=C2NC(=O)/C(=C/c3ccc4ncccc4c3)S2)cc1 | > 25 µM | > 25000

System: HCT-15 colon
Assay: inhibition of tumour cell growth, NCI panel, 48 h

SMILES | GI50 | TGI [µM]
O=C1NC(=NC(CO)Cc2ccccc2)S/C1=C\c1ccc2ncccc2c1 (centres undefined) | 10500 nM and 4190 nM | > 25
Cc1nnc(NC(=O)c2nc(S(=O)(=O)Cc3ccc(F)cc3)ncc2Cl)s1 | 1840 nM | 3.91
CC(C)[C@@H]1C=C2CC[C@H]3[C@](C)(CN)CCC[C@]3(C)[C@H]2CC1 | 2080 nM | 4.94
Nc1cc(NN=C(c2ccc(O)cc2)c2ccc(O)cc2)c([N+](=O)[O-])cc1[N+](=O)[O-] | 1780 nM | 4.13
O=C(Nc1ccc(Oc2ccc(Nc3nc4ccccc4s3)cc2)cc1)Nc1ccc(Cl)c(C(F)(F)F)c1 | 1540 nM | 3.44
Nc1c(C(=O)Nc2cccc(C(F)(F)F)c2)sc2nc3c(cc12)CCCCC3 | 10700 nM | > 100
Nc1ccc(C2=NNC(=O)Cc3cc4c(cc32)OCCO4)cc1Cl | 2490 nM | > 50
COc1ccc2nc3cc(Cl)ccc3c(NCCNCC(C)O)c2c1 (centres undefined) | 1210 nM | 4.36
CCCOc1cc2ccccc2cc1C(=O)Nc1nc(N)c2c(ccc3nccc32)[nH]1 | 44.4 nM | 1.31
CC1(C)OC1COc1c2occc2cc2ccc(=O)oc12 (centres undefined) |  | > 100
Nc1n[nH]c2cc(F)c([C@@H]3Nc4ccc5[nH]ncc5c4[C@H]4C5CCC(C5)[C@@H]34)cc12 (some centres undefined) | 159 nM | 9.04
COc1ccc(CCN=C2NC(=O)/C(=C/c3ccc4ncccc4c3)S2)cc1 | > 25000 nM | > 25

System: HOP-92 NSCLC
Assay: inhibition of tumour cell growth, NCI panel, 48 h

SMILES | GI50 | TGI
O=C1NC(=NC(CO)Cc2ccccc2)S/C1=C\c1ccc2ncccc2c1 (centres undefined) | 24200 nM and 6610 nM | > 25 µM and 19.5 µM
Cc1nnc(NC(=O)c2nc(S(=O)(=O)Cc3ccc(F)cc3)ncc2Cl)s1 | 1660 nM | 3.22 µM
CC(C)[C@@H]1C=C2CC[C@H]3[C@](C)(CN)CCC[C@]3(C)[C@H]2CC1 | 3300 nM | 17.6 µM
Nc1cc(NN=C(c2ccc(O)cc2)c2ccc(O)cc2)c([N+](=O)[O-])cc1[N+](=O)[O-] | 2180 nM | 8.2 µM
O=C(Nc1ccc(Oc2ccc(Nc3nc4ccccc4s3)cc2)cc1)Nc1ccc(Cl)c(C(F)(F)F)c1 | 730 nM | 3.28 µM
Nc1c(C(=O)Nc2cccc(C(F)(F)F)c2)sc2nc3c(cc12)CCCCC3 | 1820 nM | 6.23 µM
Nc1ccc(C2=NNC(=O)Cc3cc4c(cc32)OCCO4)cc1Cl | 4890 nM | 49 µM
COc1ccc2nc3cc(Cl)ccc3c(NCCNCC(C)O)c2c1 (centres undefined) | 2600 nM | 6.68 µM
CCCOc1cc2ccccc2cc1C(=O)Nc1nc(N)c2c(ccc3nccc32)[nH]1 | 27.9 nM | 1.98 µM
CC1(C)OC1COc1c2occc2cc2ccc(=O)oc12 (centres undefined) |  | > 100 µM
Nc1n[nH]c2cc(F)c([C@@H]3Nc4ccc5[nH]ncc5c4[C@H]4C5CCC(C5)[C@@H]34)cc12 (some centres undefined) | 240 nM | 9.01 µM
COc1ccc(CCN=C2NC(=O)/C(=C/c3ccc4ncccc4c3)S2)cc1 | > 11300 nM | > 25 µM

System: MALME-3M melanoma
Assay: inhibition of tumour cell growth, NCI panel, 48 h

SMILES | GI50 | TGI [µM]
O=C1NC(=NC(CO)Cc2ccccc2)S/C1=C\c1ccc2ncccc2c1 (centres undefined) | 12000 nM and 6190 nM | > 25
Cc1nnc(NC(=O)c2nc(S(=O)(=O)Cc3ccc(F)cc3)ncc2Cl)s1 | 1800 nM | 3.48
CC(C)[C@@H]1C=C2CC[C@H]3[C@](C)(CN)CCC[C@]3(C)[C@H]2CC1 | 3900 nM | 19.3
Nc1cc(NN=C(c2ccc(O)cc2)c2ccc(O)cc2)c([N+](=O)[O-])cc1[N+](=O)[O-] | 2450 nM | 5.96
O=C(Nc1ccc(Oc2ccc(Nc3nc4ccccc4s3)cc2)cc1)Nc1ccc(Cl)c(C(F)(F)F)c1 | 1800 nM | 3.79
Nc1c(C(=O)Nc2cccc(C(F)(F)F)c2)sc2nc3c(cc12)CCCCC3 | 3000 nM | 9.49
Nc1ccc(C2=NNC(=O)Cc3cc4c(cc32)OCCO4)cc1Cl | 4130 nM | > 50
COc1ccc2nc3cc(Cl)ccc3c(NCCNCC(C)O)c2c1 (centres undefined) | 1820 nM | 3.68
CCCOc1cc2ccccc2cc1C(=O)Nc1nc(N)c2c(ccc3nccc32)[nH]1 | 1130 nM | 2.62
CC1(C)OC1COc1c2occc2cc2ccc(=O)oc12 (centres undefined) |  | > 100
Nc1n[nH]c2cc(F)c([C@@H]3Nc4ccc5[nH]ncc5c4[C@H]4C5CCC(C5)[C@@H]34)cc12 (some centres undefined) | 1470 nM | 28.3
COc1ccc(CCN=C2NC(=O)/C(=C/c3ccc4ncccc4c3)S2)cc1 | > 25000 nM | > 25

System: OVCAR-3 ovarian
Assay: inhibition of tumour cell growth, NCI panel, 48 h

SMILES | GI50 | TGI
O=C1NC(=NC(CO)Cc2ccccc2)S/C1=C\c1ccc2ncccc2c1 (centres undefined) | 19800 nM and 2730 nM | > 25 µM and 11.8 µM
Cc1nnc(NC(=O)c2nc(S(=O)(=O)Cc3ccc(F)cc3)ncc2Cl)s1 | 1940 nM | 3.47 µM
CC(C)[C@@H]1C=C2CC[C@H]3[C@](C)(CN)CCC[C@]3(C)[C@H]2CC1 | 2800 nM | 9.22 µM
Nc1cc(NN=C(c2ccc(O)cc2)c2ccc(O)cc2)c([N+](=O)[O-])cc1[N+](=O)[O-] | 1810 nM | 4.14 µM
O=C(Nc1ccc(Oc2ccc(Nc3nc4ccccc4s3)cc2)cc1)Nc1ccc(Cl)c(C(F)(F)F)c1 | 1540 nM | 3.98 µM
Nc1c(C(=O)Nc2cccc(C(F)(F)F)c2)sc2nc3c(cc12)CCCCC3 | 2840 nM | 11.5 µM
Nc1ccc(C2=NNC(=O)Cc3cc4c(cc32)OCCO4)cc1Cl | 1510 nM | 6.47 µM
COc1ccc2nc3cc(Cl)ccc3c(NCCNCC(C)O)c2c1 (centres undefined) | 2380 nM | 8.04 µM
CCCOc1cc2ccccc2cc1C(=O)Nc1nc(N)c2c(ccc3nccc32)[nH]1 | 25.4 nM | 0.0819 µM
CC1(C)OC1COc1c2occc2cc2ccc(=O)oc12 (centres undefined) |  | > 100 µM
Nc1n[nH]c2cc(F)c([C@@H]3Nc4ccc5[nH]ncc5c4[C@H]4C5CCC(C5)[C@@H]34)cc12 (some centres undefined) | 167 nM | 6.35 µM
COc1ccc(CCN=C2NC(=O)/C(=C/c3ccc4ncccc4c3)S2)cc1 | > 25000 nM | > 25 µM
